Target: human ATX (Homo sapiens (Human), UniProt Q13822)
Assay: Human ATX enzyme inhibition assay (fluorescence quenching, MR121 substrate)
Type: biochemical
Details: human His-tagged ATX 30 nM, MR121 substrate 1 μM, 30° C.
Procedure: Human ATX Enzyme Inhibition Assay
ATX inhibition was measured by a fluorescence quenching assay using a specifically labeled substrate analogue (MR121 substrate). To obtain this MR121 substrate, BOC and TBS protected 6-amino-hexanoic acid (R)-3-({2-[3-(2-{2-[2-(2-amino-ethoxy)-ethoxy]-ethoxy}-ethoxy)-propionylamino]-ethoxy}-hydroxy-phosphoryloxy)-2-hydroxy-propyl ester (Ferguson et al., Org Lett 2006, 8 (10), 2023) was labeled with MR121 fluorophore (CAS 185308-24-1, 1-(3-carboxypropyl)-11-ethyl-1,2,3,4,8,9,10,11-octahydro-dipyrido[3,2-b:2′,3′-i]phenoxazin-13-ium) on the free amine of the ethanolamine side and then, after deprotection, subsequently with tryptophan on the side of the aminohexanoic acid.
Assay working solutions were made as follows:
Assay buffer (50 mM Tris-HCl, 140 mM NaCl, 5 mM KCl, 1 mM CaCl2, 1 mM MgCl2, 0.01% Triton-X-100, pH 8.0;
ATX solution: ATX (human His-tagged) stock solution (1.08 mg/mL in 20 mM bicine, pH 8.5, 0.15 M NaCl, 10% glycerol, 0.3% CHAPS, 0.02% NaN3), diluted to 1.4-2.5× final concentration in assay buffer;
MR121 substrate solution: MR121 substrate stock solution (800 μM MR121 substrate in DMSO), diluted to 2-5× final concentration in assay buffer.
Test compounds (10 mM stock in DMSO, 8 μL) were obtained in 384 well sample plates (Corning Costar #3655) and diluted with 8 μL DMSO. Row-wise serial dilutions were made by transferring 8 μL cpd solution to the next row up to row O. The compound and control solutions were mixed five times and 2 μL were transferred to 384 well assay plates (Corning Costar #3702). Then, 15 μL of 41.7 nM ATX solution was added (30 nM final concentration), mixed five times and then incubated for 15 minutes at 30° C. 10 μL of MR121 substrate solution was added (1 μM final concentration), mixed 30 times and then incubated for 15 minutes at 30° C.

| SMILES | IC50 [nM] |
| --- | --- |
| Cn1c(COc2cc(Cl)c(C#N)cc2-c2cccc(-c3cc[nH]n3)c2)n[nH]c1=O [Example B34, 2-Chloro-4-[(4-methyl-5-oxo-1H-1,2,4-triazol-3-yl)methoxy]-5-[3-(H-pyrazol-3-yl)phenyl]benzonitrile] | 51 |
| Cc1nc(-c2cccc(-c3cc(C#N)c(Cl)cc3OCc3n[nH]c(=O)n3C)c2)no1 [Example B35] | 81 |
| Cc1cc(OCc2n[nH]c(=O)n2C)c(-c2cccc(C(=O)NCCO)c2)cc1Cl [Example B36] | 82 |
| Cc1nnc(-c2cccc(-c3cc(C#N)c(Cl)cc3OCc3n[nH]c(=O)n3C)c2)o1 [Example B37] | 79 |
| Cc1cc(OCc2n[nH]c(=O)n2C)c(-c2cc(C(=O)N(C)C)ccc2F)cc1Cl [Example B38] | 8 |
| CN(C)C(=O)c1cccc(-c2cc(C#N)c(Cl)cc2OCc2n[nH]c(=O)n2C)c1 [Example B39] | 93 |
| Cc1cc(OCc2n[nH]c(=O)n2C)c(-c2cc(C(=O)N3CCOCC3)ccc2F)cc1Cl [Example B40] | 15 |
| Cn1c(COc2cc(Cl)c(C#N)cc2-c2cccc(C(=O)N3CCOCC3)c2)n[nH]c1=O [Example B41] | 40 |
| COC(=O)c1cccc(-c2cc(Cl)c(C)cc2OCc2n[nH]c(=O)n2C)c1 [Example B42, Methyl 3-[5-chloro-4-methyl-2-[(4-methyl-5-oxo-1H-1,2,4-triazol-3-yl)methoxy]phenyl]benzoate] | 21 |
| Cc1cc(OCc2n[nH]c(=O)n2C)c(-c2cccc(C(=O)O)c2)cc1Cl [Example B43, 3-[5-Chloro-4-methyl-2-[(4-methyl-5-oxo-1H-1,2,4-triazol-3-yl)methoxy]phenyl]benzoic acid] | 1100 |
| COC(=O)CCNC(=O)c1cccc(-c2cc(Cl)c(C)cc2OCc2n[nH]c(=O)n2C)c1 [Example B44, Methyl 3-[[3-[5-chloro-4-methyl-2-[(4-methyl-5-oxo-1H-1,2,4-triazol-3-yl)methoxy]phenyl]benzoyl]amino]propanoate] | 13 |
| Cc1cc(OCc2n[nH]c(=O)n2C)c(-c2cccc(C(=O)N(C)CCO)c2)cc1Cl [Example B45, 3-[5-Chloro-4-methyl-2-[(4-methyl-5-oxo-1H-1,2,4-triazol-3-yl)methoxy]phenyl]-N-(2-hydroxyethyl)-N-methylbenzamide] | 29 |
| CCOC(=O)CNC(=O)c1cccc(-c2cc(Cl)c(C)cc2OCc2n[nH]c(=O)n2C)c1 [Example B46, Ethyl 2-[[3-[5-chloro-4-methyl-2-[(4-methyl-5-oxo-1H-1,2,4-triazol-3-yl)methoxy]phenyl]benzoyl]amino]acetate] | 7 |
| Cc1cc(OCc2n[nH]c(=O)n2C)c(-c2cccc(C(=O)NCCC(=O)O)c2)cc1Cl [Example B47] | 82 |
| Cc1cc(OCc2n[nH]c(=O)n2C)c(-c2cccc(C(=O)NCC(=O)O)c2)cc1Cl [Example B48] | 192 |
| COC(=O)c1ccc(C)c(-c2cc(Cl)c(C)cc2OCc2n[nH]c(=O)n2C)c1 [Example B49, Methyl 3-[5-chloro-4-methyl-2-[(4-methyl-5-oxo-1H-1,2,4-triazol-3-yl)methoxy]phenyl]-4-methylbenzoate] | 8 |
| Cc1cc(OCc2n[nH]c(=O)n2C)c(-c2cc(C(=O)O)ccc2C)cc1Cl [Example B50, 3-[5-chloro-4-methyl-2-[(4-methyl-5-oxo-1H-1,2,4-triazol-3-yl)methoxy]phenyl]-4-methylbenzoic acid] | 173 |
| Cc1cc(OCc2n[nH]c(=O)n2C)c(-c2cc(C(=O)N(C)C)ccc2C)cc1Cl [Example B51, 3-[5-Chloro-4-methyl-2-[(4-methyl-5-oxo-1H-1,2,4-triazol-3-yl)methoxy]phenyl]-N,N,4-trimethylbenzamide] | 17 |
| Cc1cc(OCc2n[nH]c(=O)n2C)c(-c2cc(C(N)=O)ccc2OC(F)(F)F)cc1Cl [Example B52] | 12 |
| COc1ncccc1-c1cc(Cl)c(C)cc1OCc1n[nH]c(=O)n1C [Example B53] | 42 |

| SMILES | IC50 [nM] |
| --- | --- |
| COc1ncccc1-c1cc(C#N)c(Cl)cc1OCc1n[nH]c(=O)n1C [Example B54] | 29 |
| CCOc1ccc(F)c(-c2cc(Cl)c(C)cc2OCc2n[nH]c(=O)n2C)c1 [Example B55] | 9 |
| Cc1cc(OCc2n[nH]c(=O)n2C)c(-c2cc(OC(C)C)ccc2F)cc1Cl [Example B57] | 11 |
| Cc1cc(OCc2n[nH]c(=O)n2C)c(-c2cc(OCC(C)C)ccc2F)cc1Cl [Example B58] | 16 |
| COc1ccc(C(F)(F)F)cc1-c1cc(Cl)c(C)cc1OCc1n[nH]c(=O)n1C [Example B59] | 25 |
| COc1ccc(C(C)C)cc1-c1cc(Cl)c(C)cc1OCc1n[nH]c(=O)n1C [Example B60] | 11 |
| Cn1c(COc2cc(Cl)c(C#N)cc2-c2cc(C(=O)N3CCOCC3)ccc2F)n[nH]c1=O [Example B61] | 10 |
| Cc1cc(OCc2n[nH]c(=O)n2C)c(-c2cc(C(=O)N3CCCC3)ccc2F)cc1Cl [Example B62] | 9 |
| Cc1cc(OCc2n[nH]c(=O)n2C)c(-c2cc(C(=O)N(C)C3CC3)ccc2F)cc1Cl [Example B63] | 10 |
| Cc1cc(OCc2n[nH]c(=O)n2C)c(-c2cc(C(=O)N(C)CCO)ccc2F)cc1Cl [Example B64] | 21 |
| Cc1cc(OCc2n[nH]c(=O)n2C)c(-c2cc(C(=O)N3CCN(C)C(=O)C3)ccc2F)cc1Cl [Example B65] | 13 |
| Cc1cc(OCc2n[nH]c(=O)n2C)c(-c2cc(C(=O)N(C)C3CCCC3)ccc2F)cc1Cl [Example B66] | 7 |
| Cc1cc(OCc2n[nH]c(=O)n2C)c(-c2cc(OCC3CCOC3)ccc2F)cc1Cl (stereo not shown) [Example B67] | 6 |
| Cc1cc(OCc2n[nH]c(=O)n2C)c(-c2cc(C(=O)N(C)Cc3cccs3)ccc2F)cc1Cl [Example B68] | 7 |
| Cc1cc(OCc2n[nH]c(=O)n2C)c(-c2cc(C(=O)N3CCCCC3)ccc2F)cc1Cl [Example B69] | 9 |
| Cc1cc(OCc2n[nH]c(=O)n2C)c(-c2cc(C(=O)N(C)CC3CC3)ccc2F)cc1Cl [Example B70] | 4 |
| Cc1cc(OCc2n[nH]c(=O)n2C)c(-c2cc(C(=O)N(C)Cc3ccccn3)ccc2F)cc1Cl [Example B71] | 9 |
| Cc1cc(OCc2n[nH]c(=O)n2C)c(-c2cc(OCC3CCOCC3)ccc2F)cc1Cl [Example B72] | 10 |
| COCCN(C)C(=O)c1ccc(F)c(-c2cc(Cl)c(C)cc2OCc2n[nH]c(=O)n2C)c1 [Example B73] | 9 |
| Cc1cc(OCc2n[nH]c(=O)n2C)c(-c2cc(OCC3CCCO3)ccc2F)cc1Cl (stereo not shown) [Example B74] | 6 |

| SMILES | IC50 [nM] |
| --- | --- |
| Cc1cc(OCc2n[nH]c(=O)n2C)c(-c2cc(OCC(=O)N(C)C)ccc2F)cc1Cl [Example B75] | 10 |
| Cc1cc(OCc2n[nH]c(=O)n2C)c(-c2cc(CN3CC(=O)N(C)CC3=O)ccc2F)cc1Cl [Example B76] | 11 |
| Cc1cc(OCc2n[nH]c(=O)n2C)c(-c2c(F)ccc3c2oc(=O)n3C)cc1Cl [Example B77] | 15 |
| COCC(=O)N(C)Cc1ccc(F)c(-c2cc(Cl)c(C)cc2OCc2n[nH]c(=O)n2C)c1 [Example B78] | 7 |
| Cc1cc(OCc2n[nH]c(=O)n2C)c(-c2cc(CNC(=O)C3CC3)ccc2F)cc1Cl [Example B79] | 10 |
| Cc1cc(OCc2n[nH]c(=O)n2C)c(-c2cc(CN(C)C(=O)C3CC3)ccc2F)cc1Cl [Example B80] | 5 |
| Cc1cc(OCc2n[nH]c(=O)n2C)c(-c2cc(CN3CCCC3=O)ccc2F)cc1Cl [Example B81] | 3 |
| Cc1cc(OCc2n[nH]c(=O)n2C)c(-c2cc(CN3CCOC3=O)ccc2F)cc1Cl [Example B82] | 8 |
| COCC(=O)NCc1ccc(F)c(-c2cc(Cl)c(C)cc2OCc2n[nH]c(=O)n2C)c1 [Example B83] | 8 |
| Cn1c(COc2cc(Cl)c(C#N)cc2-c2ccccc2F)n[nH]c1=O [Example B84] | 19 |
| Cn1c(COc2cc(Cl)c(C#N)cc2-c2cccc(F)c2)n[nH]c1=O [Example B85] | 21 |
| Cc1cc(OCc2n[nH]c(=O)n2C)c(-c2cc(C#N)ccc2OC(F)(F)F)cc1Cl [Example B86] | 49 |
| Cn1c(COc2cc(Cl)c(C#N)cc2-c2cc(OCC3CCCO3)ccc2F)n[nH]c1=O (stereo not shown) [Example B87] | 5 |
| COc1cccc(-c2cc(C#N)c(Cl)cc2OCc2n[nH]c(=O)n2C)c1F [Example B88] | 1 |
| CC(C)Oc1ccc(F)c(-c2cc(C#N)c(Cl)cc2OCc2n[nH]c(=O)n2C)c1 [Example B89] | 4 |
| COc1cccc(-c2cc(Cl)c(C)cc2OCc2n[nH]c(=O)n2C)c1F [Example B90] | 7 |
| Cn1c(COc2cc(Cl)c(C#N)cc2-c2cccc(F)c2F)n[nH]c1=O [Example B91] | 4 |
| Cc1cc(OCc2n[nH]c(=O)n2C)c(-c2cc(OC3CC3)ccc2F)cc1Cl [Example B92] | 1 |

Source: patent publication US11352330B2, “Phenoxymethyl derivatives” (Hoffmann-La Roche Inc., priority 2015, dated 2022)
